For data set [1], the target named is T1, cell surface PD1 on CD3+/CD8+ cells of h-PBMCs (Homo sapiens, UniProt Q15116).
T1 construct: endogenous in cells; host or cells: healthy human PBMCs (CD45+, CD3+/CD8+ gated)
The data set is described as follows: In cellulo PD1 blockade on h-PBMCs by flow cytometry. The following applies: h-PBMC cultures, 30 h, n = 3. Type of data set: cell-based. An excerpt:
Then, an ex vivo immune cell culture system using h-PBMCs and exhausted PBMCs from a melanoma patient (e-PBMCs) was used to determine the efficacy of selected ADAPTin peptides on T-effector cells (Fig. 6).[91,92] T-cell exhaustion typically leads to a reduction in cytokine release, cytotoxic activity, as well as slower T-cell proliferation.

The target in data set [2] is T2, PD1:PDL1 interaction (Homo sapiens, UniProt Q15116).
T2 construct: purchased BPS Bioscience 72005
T2 sequence (Q15116 25-167 limits assumed): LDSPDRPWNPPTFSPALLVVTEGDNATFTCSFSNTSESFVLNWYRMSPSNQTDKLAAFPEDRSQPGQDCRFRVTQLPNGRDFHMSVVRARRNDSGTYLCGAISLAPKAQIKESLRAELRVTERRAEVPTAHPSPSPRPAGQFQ
The data set is described as follows: PD1/PDL1 immunoblocking ELISA (BPS Bioscience kit cat # 72005). Type of data set: binding. On the technique in general: ELISA stands for enzyme-linked immunosorbent assay.

Data set [3] deals with e-PBMCs. Put plainly: Ex vivo cytokine secretion assay, exhausted PBMCs from a melanoma patient. Type of data set: cell-based, human. The following applies: e-PBMC, 6 h, LEGENDplex. The method, then: Then, an ex vivo immune cell culture system using h-PBMCs and exhausted PBMCs from a melanoma patient (e-PBMCs) was used to determine the efficacy of selected ADAPTin peptides on T-effector cells (Fig. 6).[91,92] T-cell exhaustion typically leads to a reduction in cytokine release, cytotoxic activity, as well as slower T-cell proliferation. […] Cytokines concentrations measured at 72 h post-treatment were in most cases over the detection limit range further indicating the effectiveness of our compounds over time.
Non-covalent ADAPTin2c/2p were used as negative control. (A) Levels of inflammatory cytokines measured by flow-cytometry (FACS) after 6 h incubation with electrophilic ADAPTins. Error bars indicate the mean ± SD, (n = 3). (B) Rescue of exhausted PBMCs from a melanoma patient. Levels of inflammatory cytokines and granule-associated proteins released (6 h) measured by FACS (healthy and untreated exhausted PBMCs: h-/e-PBMCs used as positive and negative controls respectively). Error bars indicate the avg ± SD, (n = 2).
Ex Vivo Cytokine Secretion Assay.
Normal PBMCs (from healthy donor) and exhausted PBMCs isolated from the blood sample of a melanoma patient were activated for 48 h before using anti-CD2/28 monoclonal antibodies with IL-2 (2 ng/mL) as mentioned above. After 48 h, PBMCs were washed and incubated with a series of ADAPTins for 6 h. After treatment, media supernatant was collected for cytokine release measurements using the LEGENDplex™ human CD8/NK (13-plex) panel (BioLegend, cat no. 740267). Briefly, samples were mixed with assay buffer and human (13-plex) mixed-beads and plated on the 96-well filter plate. Samples were incubated for 2 h at room temperature, washed, and resuspended beads with detection antibodies according to manufacturer's protocol. Samples were transferred to a 96-well plate to read on a flow cytometer. The flow cytometer and data acquisition software setting were used according to the manufacturer's instructions. Flow analysis was obtained using a CytoFLEX-S flow cytometer equipped with 3 lasers (488 nm blue, 405 nm violet, and 638 nm from Beckman).
Table S9. Raw data of cytokine secretion assay (n=2).
Cytokine assay IL-2 TNF-α IFN-γ Perforin […]

The nature of data set [4]: Variable-temperature CD melting curves (CD-melts at 228±2 nm and 202±2 nm), individual and global two-state fits. Type of data set: physicochemical. In outline: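 Far-UV CD melts (0 to 95 °C) at 15-120 µM peptide in 15 mM phosphate buffer, concentration set by Trp/Tyr absorbance at 280 nm; CD-exciton intensity taken as %-folding probe. Melting curves fitted individually and globally to a two-state model.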

Setting [5] is: variable-temperature CD melt 0-95 °C, θ - θcoil(95) vs T, l = 0.1 cm, individual two-state fit.

Peptide text beside a SMILES is read from it.

T1 sequence (Q15116 25-288): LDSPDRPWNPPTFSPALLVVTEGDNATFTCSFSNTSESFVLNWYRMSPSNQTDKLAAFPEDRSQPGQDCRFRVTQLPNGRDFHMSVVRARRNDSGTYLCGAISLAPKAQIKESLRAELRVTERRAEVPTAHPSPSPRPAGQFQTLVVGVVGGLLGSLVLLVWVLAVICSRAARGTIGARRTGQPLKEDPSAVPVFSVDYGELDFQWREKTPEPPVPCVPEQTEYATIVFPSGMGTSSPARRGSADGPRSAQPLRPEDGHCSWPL

In general, EC50 refers to the midpoint of the concentration-response curve. As for `CSCC[C@H](NC(=O)CNC(=O)[C@H](CCC(=O)O)NC(=O)[C@H](CCCNC(=N)N)NC(=O)[C@H](C)NC(=O)[C@@H](NC(=O)[C@H](Cc1c[nH]c2ccccc12)NC(=O)[C@@H](N)CCCNC(=N)N)C(C)C)C(=O)N[C@@H](CC(N)=O)C(=O)N[C@H](C(=O)N[C@@H](CC(=O)O)C(=O)NCC(=O)N[C@@H](Cc1ccc(O)cc1)C(=O)N[C@@H](Cc1ccccc1)C(=O)N[C@@H](CC(N)=O)C(=O)N[C@@H](Cc1ccc(O)cc1)C(=O)N[C@@H](Cc1c[nH]c2ccccc12)C(=O)N[C@H](C(=O)N[C@@H](Cc1c[nH]c2ccccc12)C(=O)N[C@@H](CCC(=O)O)C(=O)O)C(C)C)[C@@H](C)O` [2p] (H-RWVAREGMNTDGYFNYWVWE-OH), the “PD1 blockade on CD3+/CD8+ T-effector cells” value in data set [1] is reported as under 20%. The EC50 in data set [2] was determined as 160 nM.
In data set [3] (replicate 1), “pembrolizumab: FDA-approved anti-PD1 antibody; 'Pem' = its CDR-H3 loop in Table 1 [reference compound]” returned an IFN-γ of 4359.77 pg/mL, an IL-2 of 0.44 pg/mL, a Perforin of 227.36 pg/mL and a TNF-α of 500.12 pg/mL. In data set [3] (replicate 2), this compound registered an IFN-γ of 7617.66 pg/mL, an IL-2 of 275.42 pg/mL, a Perforin of 438.61 pg/mL and a TNF-α of 1224.22 pg/mL.
In turn, `CSCC[C@H](NC(=O)[C@H](CC(=O)O)NC(=O)[C@H](Cc1ccccc1)NC(=O)[C@H](CCCNC(=N)N)NC(=O)[C@H](Cc1ccc(O)cc1)NC(=O)[C@H](CC(=O)O)NC(=O)[C@H](CCCNC(=N)N)NC(=O)[C@H](CCCNC(=N)N)NC(=O)[C@H](C)NC(=O)[C@@H](NC(=O)[C@H](Cc1c[nH]c2ccccc12)NC(=O)[C@@H](N)CCCNC(=N)N)C(C)C)C(=O)NCC(=O)N[C@@H](Cc1ccccc1)C(=O)N[C@@H](CC(=O)O)C(=O)N[C@@H](Cc1ccc(O)cc1)C(=O)N[C@@H](Cc1c[nH]c2ccccc12)C(=O)N[C@@H](Cc1c[nH]cn1)C(=O)N[C@@H](Cc1c[nH]c2ccccc12)C(=O)N[C@@H](CCC(=O)O)C(=O)O` [2e] (H-RWVARRDYRFDMGFDYWHWE-OH) showed a ΔGF0 in data set [4] (CD-melt at 228±2 nm, individual two-state Gibbs-Helmholtz fit (Origin 9.0), 0-95 °C, phosphate buffer 15 mM pH 6.5 ± MeOH) of 0.088 ± 0.02 kcal/mol. For the same compound, the Tm in data set [4] (Table S5, individual fit, 228±2 nm) came out at 3.96 oC. Moreover, the “Hairpin %-fold 291K” value in data set [4] (Table S5, individual fit, 291 K) was 48 ± 1%. Also, the “Hairpin %-fold 310K” value in data set [4] (Table S5, individual fit, 310 K) was 42 ± 1%. Also, in data set [4] (as E16), the “-TΔSF0” value stood at 2.40 ± 0.02 kcal/mol, the ΔCpF0 is on record as -107±5 cal.deg-1.mol-1, the ΔHF0 was -2.31 ± 0.03 kcal/mol and the ΔHm was -0.070 ± 0.6 kcal/mol. In addition, the VT-CD %-fold in data set [4] (folded fraction (χF) at 25 °C from CD-melts, (R) regular / (B) bulged fold, phosphate buffer 15 mM pH 6.5, up to 20% MeOH) is reported as 48% (B). Besides, the “%fold 291K” value in data set [4] (fraction folded at 291 K from two-state fit of CD-melt) is 48%. For the same compound, the “VT-CD Tm (°C)” value in data set [4] (melting temperature from CD-melts, phosphate buffer 15 mM pH 6.5, up to 20% MeOH) was found to be 4 °C. Further, in data set [4] (setting [5]), the “DHm (fitted value, OriginPro two-state fit of CD-melt)” value was -0.0700474 kcal/mol and the “Tm (fitted value, OriginPro two-state fit of CD-melt)” value is reported as 277.107 K. In addition, in data set [2] (LE = -RTln(EC50)/HA, HA = non-hydrogen atoms omitting the strap (RWV•••VWE)), the “LE (ligand efficiency)” value was 0.06.

The values above are taken from paper PMC11562385 (RSC Chemical Biology, 2024).
